Read-outs that look alike come from different tables or passages of the source.
How the values were obtained:
[1] = system: HIVLAI RT D67N/K70R/T215F; test: Drug susceptibility assay in P4/R5 cells, site-directed mutant; assay type: cell-based, HIV-1; conditions: for Fold-Resistance: D67N/K70R/T215F compared to wild-type; for IC50: D67N/K70R/T215F, mean ± SD
Protocol: (§1) Drug susceptibility assays. NRTI susceptibility was determined in P4/R5 cells as described previously (Parikh, U. M., et al. 2005. Antimicrob. Agents Chemother. 49:1139-44). Briefly, threefold dilutions of inhibitor were added to P4/R5 cells in triplicate and cells were infected with an amount of virus that produced 100 relative units of light (RLU) in no drug, virus control wells. After 48 hours, the cells were lysed (Gal-Screen; Tropix/Applied Biosystems, Foster City, Calif.) and the RLU was measured using a ThermoLabSystems luminometer (Waltham, Mass.). The IC50 and fold-resistance were calculated as described above. IC50 values from at least three independent experiments were log10 transformed and compared for statistically significant differences using the two-sample Student's t test.
(§2) Construction of mutant recombinant HIV-1. Mutant recombinant plasmid clones of virus were generated by oligonucleotide site-directed mutagenesis as described previously (Shi, C., and J. W. Mellors. 1997. A recombinant retroviral system for rapid […] analysis of human immunodeficiency virus type 1 susceptibility to reverse transcriptase inhibitors. Antimicrob. Agents Chemother. 41:2781-5), using the p6HRT-MO plasmid. p6HRT-MO contains the entire RT and protease coding sequence as previously described (Le Grice, S. F., and F. Gruninger-Leitch. 1990. Rapid purification of homodimer and heterodimer HIV-1 reverse transcriptase by metal chelate affinity chromatography. Eur. J. Biochem. 187:307-14) and four silent restriction sites (Xma I, Mlu I, Xba I, and NgoM IV from the 5′ to 3′ end of RT at codons 14, 358, 490 and 554, respectively). After site-directed mutagenesis (QIAamp kit, QIAGEN, Valencia, Calif.), the mutated RT was ligated into pxxHIV-1LAI MO that contains the entire genome of HIV-1LAI and the same silent restriction sites as p6HRT-MO. Infectious virus was generated by electroporating the mutated xxHIV-1LAI MO plasmid into MT-2 cells as described above. All mutations in recombinant viruses were confirmed by full-length sequencing of the entire RT coding region.

[2] = system: HIVLAI RT D67N/K70R/T215F/A371V/Q509L; test: as above; assay type: cell-based, HIV-1; conditions: for Fold-Resistance: D67N/K70R/T215F/A371V/Q509L compared to wild-type; for cross-resistance compared with viruses without A371V/Q509L: HIV-1 containing D67N/K70R/T215F/A371V/Q509L; for IC50: D67N/K70R/T215F/A371V/Q509L, mean ± SD
Protocol: as §1, §2

[3] = system: HIVLAI RT D67N/K70R/A371V/Q509L; test: as above; assay type: cell-based, HIV-1; conditions: for Fold-Resistance: D67N/K70R/A371V/Q509L compared to wild-type; for IC50: D67N/K70R/A371V/Q509L, mean ± SD
Protocol: as §1, §2

[4] = system: HIVLAI RT D67N/K70R; test: as above; assay type: cell-based, HIV-1; conditions: for Fold-Resistance: D67N/K70R compared to wild-type; for IC50: D67N/K70R, mean ± SD
Protocol: as §1, §2

[5] = system: HIV-1 RT mutants with A371V and/or Q509L, alone or in combination with TAMs; test: Drug susceptibility of site-directed mutants, comparisons between mutants with and without A371V/Q509L; assay type: cell-based; conditions: D67N/K70R/A371V/Q509L and D67N/K70R/T215F/A371V/Q509L
[6] = system: Wild-type HIVLAI; test: Drug susceptibility assay in P4/R5 cells, recombinant virus; assay type: cell-based, HIV-1
Protocol: as §1, §2

[7] = system: HIV-1 RT mutations D549N and H539N; conditions: cited from earlier work
[8] = system: HIV-1 RT D549N; conditions: D549N mutation; cited from earlier work
[9] = system: HIV-1 RT H539N; conditions: H539N mutation; cited from earlier work
[10] = system: HIV-1 RT D549N with TAMs D67N, K70R, T215Y and K219Q; conditions: D549N present with TAMs D67N; cited from earlier work
[11] = Human immunodeficiency virus 1, P4/R5

Nc1nc(NC2CC2)c2ncn([C@H]3C=C[C@@H](CO)C3)c2n1 [abacavir]
Fold-Resistance [1]: 2.4 fold
IC50 [1, 11]: 15 ± 1.5 µM
Fold-Resistance [2]: 3.0 fold
cross-resistance compared with viruses without A371V/Q509L [2]: greater cross-resistance
IC50 [2, 11]: 19 ± 4.5 µM
Fold-Resistance [3]: 2.0 fold
IC50 [3, 11]: 13 ± 2.5 µM
Fold-Resistance [4]: 1.2 fold
IC50 [4, 11]: 7.9 ± 0.4 µM
cross-resistance of viruses with A371V and Q509L in combination with TAMs compared with those with only TAMs [5]: Statistically significant increases in cross-resistance
IC50 [6, 11]: 6.4 ± 0.5 µM

O=c1[nH]cnc2c1ncn2[C@H]1CC[C@@H](CO)O1 [didanosine]
effect of the mutations on susceptibility [7]: no effect
Fold-Resistance [1]: 1.6 fold
IC50 [1, 11]: 6.8 ± 0.3 µM
Fold-Resistance [2]: 1.6 fold
IC50 [2, 11]: 6.6 ± 0.4 µM
Fold-Resistance [3]: 1.2 fold
IC50 [3, 11]: 4.9 ± 0.9 µM
Fold-Resistance [4]: 1.2 fold
IC50 [4, 11]: 5 ± 0.9 µM
IC50 [6, 11]: 4.2 ± 0.9 µM

O=C1Nc2ccc(Cl)cc2[C@@](C#CC2CC2)(C(F)(F)F)O1 [efavirenz]
effect of the mutations on susceptibility [7]: no effect

Nc1ccn([C@@H]2CS[C@H](CO)O2)c(=O)n1 [lamivudine]
Fold-Resistance [1]: 7.0 fold
IC50 [1, 11]: 3.8 ± 0.59 µM
Fold-Resistance [2]: 15 fold
IC50 [2, 11]: 7.5 ± 1.8 µM
Fold-Resistance [3]: 5.2 fold
IC50 [3, 11]: 2.7 ± 1.4 µM
Fold-Resistance [4]: 1.9 fold
IC50 [4, 11]: 1 ± 0.3 µM
IC50 [6, 11]: 0.5 ± 0.1 µM

Cc1cn([C@H]2C=C[C@@H](CO)O2)c(=O)[nH]c1=O [stavudine]
increase in resistance (reduced susceptibility) [8]: 2,4 fold
increase in resistance (reduced susceptibility) [9]: 10 fold
Fold-Resistance [1]: 2.4 fold
IC50 [1, 11]: 17 ± 4.6 µM
Fold-Resistance [2]: 2.0 fold
IC50 [2, 11]: 14 ± 4.4 µM
Fold-Resistance [3]: 1.3 fold
IC50 [3, 11]: 9.6 ± 2.9 µM
Fold-Resistance [4]: 1.4 fold
IC50 [4, 11]: 10 ± 3.1 µM
IC50 [6, 11]: 7.2 ± 0.6 µM
increase in resistance [10]: 12.5 fold

C[C@H](Cn1cnc2c(N)ncnc21)OCP(=O)(O)O [tenofovir]
Fold-Resistance [1]: 1.5 fold
IC50 [1]: 4.9 ± 0.7 µM
Fold-Resistance [2]: 2.7 fold
IC50 [2]: 9 ± 3.5 µM
cross-resistance compared with viruses without A371V/Q509L [2]: greater cross-resistance
Fold-Resistance [3]: 2.2 fold
IC50 [3]: 7.3 ± 1.3 µM
Fold-Resistance [4]: 1.5 fold
IC50 [4]: 4.9 ± 1.5 µM
cross-resistance of viruses with A371V and Q509L in combination with TAMs compared with those with only TAMs [5]: trend toward decreased susceptibility
IC50 ([6]; Wild-type HIVLAI RT, mean ± SD, at least 3 independent experiments, read-out: IC50): 3.3 ± 0.9 µM

— US20070196902A1, “Method of detecting AZT resistance in HIV” (University of Pittsburgh, priority 2006, published 2007)
